Entries after “also recorded” stand apart in the source; their conditions may differ.
Legend:
pancreatic cancer cell [1] = assay: in vitro sphere formation, antagonists of Table 2; type: cell-based, mouse; parameters: key: ✓✓✓✓: dose response observed; growth suppressed by 8-fold or more relative to control; ✓✓✓: dose response observed; growth suppressed between 4-fold and 8-fold relative to control; ✓✓: dose response observed; growth suppressed by less than 4-fold relative to control; ✓: response observed only at highest drug dose tested; —: no detectable response; conditions: extent of growth suppression relative to control
Procedure: Pancreatic tumorsphere formation assays were performed and modified from (Rovira et al., 2010). Briefly, low-passage (<6 passages) WT or REM2-KP^f/fC cell lines were infected with lentiviral particles containing shRNAs; positively infected (red) cells were sorted 72 hours after transduction. 100-300 infected cells were suspended in tumorsphere media: 100 μl DMEM F-12 (Gibco, Life Technologies) containing 1× B-27 supplement (Gibco, Life Technologies), 3% FBS, 100 μM B-mercaptoethanol (Gibco, Life Technologies), 1× non-essential amino acids (Gibco, Life Technologies), 1× N2 supplement (Gibco, Life Technologies), 20 ng/ml EGF (Gibco, Life Technologies), 20 ng/ml bFGF2 (Gibco, Life Technologies), and 10 ng/ml ESGRO mLIF (Thermo Fisher). Cells in media were plated in 96-well ultra-low adhesion culture plates (Costar) and incubated at 37° C. for 7 days. KP^f/fC in vitro tumorsphere formation studies were conducted at a minimum of n=3 independent wells per cell line across two independent shRNA of n=3 wells; however, the majority of these experiments were additionally completed in >1 independently-derived cell lines n=3, at n=3 wells per shRNA.

pancreatic cancer cell [2] = assay: in vivo tumor growth, antagonists of Table 2; parameters: species or system mouse; key: ✓✓✓✓: dose response observed; growth suppressed by 8-fold or more relative to control; ✓✓✓: dose response observed; growth suppressed between 4-fold and 8-fold relative to control; ✓✓: dose response observed; growth suppressed by less than 4-fold relative to control; ✓: response observed only at highest drug dose tested; —: no detectable response; conditions: extent of growth suppression relative to control
[3] = system: KP^f/fC derived flank tumors; assay: KP^f/fC flank tumors in immunocompetent mice; type: in vivo, mouse; conditions: gemcitabine alone
[4] = system: primary patient-derived PDX1535 organoids; assay: PDX1535 organoid assay; type: cell-based, human
Procedure: PDX1535 organoids were derived from a patient of pancreatic cancer. Primary patient organoids were established by digesting patient-derived xenografts for 1 hour at 37° C. in RPMI containing 2.5% FBS, 5 mg/ml Collagenase II, and 1.25 mg/ml Dispase II, followed by passage through a […] mesh filter. Cells were plated at a density of 1.5×10^5 cells per 50 μl Matrigel. After domes were solidified, growth medium was added as follows: RPMI containing 50% Wnt3a conditioned media, 10% RSpondin1-conditioned media, 2.5% FBS, 50 ng/ml EGF, 5 mg/ml Insulin, 12.5 ng/ml hydrocortisone, and 14 μM Rho Kinase Inhibitor. After establishment, organoids were passaged and maintained. Briefly, organoids were isolated using Cell Recovery Solution (Corning 354253), then dissociated into single cell suspension with TrypLE Express (ThermoFisher 12604) supplemented with 25 μg/ml DNase I (Roche) and 14 μM Rho Kinase Inhibitor (Y-27632, Sigma). Cells were split 1:2 into 20 μl domes plated on pre-warmed 48-well plates. Domes were incubated at 37° C. for 5 min, then covered with human complete organoid feeding media without Wnt3a-conditioned media. […] The organoids were imaged and measured at the end of treatment. […] Moreover, the anti-cancer effect of JTE-151 was determined in an organoid assay using pancreatic cancer cells derived from mice bearing primary patient-derived xenografts.

[5] = system: primary patient-derived PDX1356 organoids; assay: PDX1356 organoid assay; type: cell-based, human; conditions: 0.05 nM gemcitabine alone
Procedure: PDX1535 organoids were derived from a patient of pancreatic cancer. Primary patient organoids were established by digesting patient-derived xenografts for 1 hour at 37° C. in RPMI containing 2.5% FBS, 5 mg/ml Collagenase II, and 1.25 mg/ml Dispase II, followed by passage through a […] mesh filter. Cells were plated at a density of 1.5×10^5 cells per 50 μl Matrigel. After domes were solidified, growth medium was added as follows: RPMI containing 50% Wnt3a conditioned media, 10% RSpondin1-conditioned media, 2.5% FBS, 50 ng/ml EGF, 5 mg/ml Insulin, 12.5 ng/ml hydrocortisone, and 14 μM Rho Kinase Inhibitor. After establishment, organoids were passaged and maintained. Briefly, organoids were isolated using Cell Recovery Solution (Corning 354253), then dissociated into single cell suspension with TrypLE Express (ThermoFisher 12604) supplemented with 25 μg/ml DNase I (Roche) and 14 μM Rho Kinase Inhibitor (Y-27632, Sigma). Cells were split 1:2 into 20 μl domes plated on pre-warmed 48-well plates. Domes were incubated at 37° C. for 5 min, then covered with human complete organoid feeding media without Wnt3a-conditioned media.
As shown in FIGS. 65-66, the anti-cancer effect of JTE-151 was also tested using the organoid assay on primary patient-derived PDX1356 pancreatic cancer cells. […] The volume of organoids was expressed as relative to control.

Row | SMILES | in vitro sphere formation (pancreatic cancer cell [1]) | in vivo tumor growth (pancreatic cancer cell [2]) | further results
1 | Cl[TeH]1(Cl)(Cl)OCCO1 [AS101] | ✓✓✓ (dose response observed; growth suppressed between 4-fold and 8-fold relative to control) | — | 
2 | O=C1/C(=C/c2ccccc2)C(NC2CCCCC2)c2ccccc21 (centres unmarked) [BCl] | ✓✓ (dose response observed; growth suppressed by less than 4-fold relative to control) | — | 
3 | Cc1c(F)cccc1NC(=O)Nc1ccc(Cl)c(S(=O)(=O)[C@H]2CCCNC2)c1O [Danirixin] | — |  | 
4 | CCc1cc(Cl)c(OC)c(C(=O)NC[C@@H]2CCCN2CC)c1O [Eticlopride] | — | — | 
5 | NCCCCCCCN=C(N)N [GC7] | ✓ |  | 
6 | Oc1c(Br)cc(Br)cc1-c1[nH]c(Br)c(Br)c1Br [Pentabromopseudilin] | ✓✓ (dose response observed; growth suppressed by less than 4-fold relative to control) |  | 
7 | CC(C)(C)NC(=O)c1cncn1C1CCN(c2ccc(-c3nnc(C(F)(F)F)o3)cn2)CC1 [Wnk463] | ✓✓ (dose response observed; growth suppressed by less than 4-fold relative to control) |  | 
8 | Nc1ccn([C@@H]2O[C@H](CO)[C@@H](O)C2(F)F)c(=O)n1 [gemcitabine] |  |  | cancer stem cell burden [3]: no impact; organoid growth ([4]; 0.025 nM gemcitabine alone): decreased PDZ1535 organoid growth, although not statistically significant; organoid volume / growth ([4]; 0.05 nM gemcitabine alone): visibly reduced; also recorded: significant inhibition; organoid volume [5]: significant reduction; also recorded: visibly decreased; also recorded: visibly reduced
